Consider 1 compound from PMC13377601, “Discovery of VU6066098: A Selective and CNS-Penetrant mGlu2 NAM with Robust Antidepressant‑, Antipsychotic‑, and Procognitive-like Activity in Rodents” (ACS Chemical Neuroscience, 2026).

The term pIC50 denotes the IC50 on a negative log10 scale, so that one unit is a factor of ten.

The target of this experiment is T1, human mGlu2 (Homo sapiens, UniProt Q14416).
T1 construct: expressed in transfected cells; host or cells: HEK293 stably co-expressing GIRK channels
T1 sequence (Q14416 19-872): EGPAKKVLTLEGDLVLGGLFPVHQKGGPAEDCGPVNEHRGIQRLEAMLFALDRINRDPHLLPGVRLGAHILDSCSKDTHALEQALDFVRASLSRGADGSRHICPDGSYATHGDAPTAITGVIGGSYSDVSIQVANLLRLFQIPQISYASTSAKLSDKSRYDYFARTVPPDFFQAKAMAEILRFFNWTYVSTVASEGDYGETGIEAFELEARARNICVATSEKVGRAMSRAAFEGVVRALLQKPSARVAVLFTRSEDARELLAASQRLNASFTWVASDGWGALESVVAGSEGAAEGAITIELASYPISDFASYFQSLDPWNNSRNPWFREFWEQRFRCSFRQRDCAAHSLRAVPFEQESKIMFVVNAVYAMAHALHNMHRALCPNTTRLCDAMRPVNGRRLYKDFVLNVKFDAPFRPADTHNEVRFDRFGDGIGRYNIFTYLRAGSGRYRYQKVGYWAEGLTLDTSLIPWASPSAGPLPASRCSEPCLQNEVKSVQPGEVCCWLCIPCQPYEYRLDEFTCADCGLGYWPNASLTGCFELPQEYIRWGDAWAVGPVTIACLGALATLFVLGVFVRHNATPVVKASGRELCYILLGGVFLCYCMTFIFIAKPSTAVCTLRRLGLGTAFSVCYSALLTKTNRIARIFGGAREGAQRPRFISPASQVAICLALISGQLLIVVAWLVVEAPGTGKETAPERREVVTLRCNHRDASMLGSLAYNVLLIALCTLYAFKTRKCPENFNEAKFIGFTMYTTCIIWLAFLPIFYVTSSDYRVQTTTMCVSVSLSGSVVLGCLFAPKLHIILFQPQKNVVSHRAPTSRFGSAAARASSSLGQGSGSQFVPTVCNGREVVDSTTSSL
As to the kind of experiment: mGlu2/GIRK thallium flux assay (human). The class given is cell-based. As to conditions: NAM vs glutamate EC80.

pIC50: −log10 of the molar value.

Description: Molecular Pharmacolgy Methods
Assessment of Cellular Potency of mGlu2 compounds in Thallium Flux Assay Human embryonic kidney 293 (HEK293) cell lines stably co-expressing human or rat mGlu2 and G protein-coupled inwardly rectifying potassium (GIRK) channels were maintained in growth medium containing DMEM/F12 containing 10% FBS, 20 mM HEPES, 1 mM sodium pyruvate, 2 mM L-glutamine, non-essential amino acids mixture, 1X Antibiotic/Antimycotic, 700 μg/mL G418, and 0.6 μg/mL puromycin. […]
Using a microplate washer (BioTek, Winooski, VT), cells were washed with GIRK assay buffer 4 times to remove media. […] The compound, agonist, and cell plates were placed inside the Functional Drug Screening System (FDSS 7000 or µCell kinetic imaging plate reader, Hamamatsu, Japan) to measure the thallium flux using a double add protocol. After establishment of a fluorescence baseline (excitation, 480 nm; emission, 530 nm), 20 µL (2x) of test compound was added to the cells at 2 seconds and the response was measured. 140 seconds later, 10 µL (5x) of an EC80 concentration of glutamate or vehicle in thallium stimulus buffer was added to the cells, and the response of the cells was measured for an additional 158 seconds. […] Fluorescence was measured […]
The average of all baseline slopes (no compound, no glutamate) was determined and this value was subtracted from all other slope values.

As to `Cn1ccc(COc2cnc(C(N)=O)cc2-c2ccc(F)cc2)n1` [NAM 5], the pIC50 was 7.11.
